{"source": "paper PMC6754336", "about": "(Drug Design, Development and Therapy, 2019)", "key": {"in vivo": {"assay": "in vivo", "conditions": "male, Wistar, rat, plasma, other: p.o. and i.v."}, "[1]": {"system": "dopamine turnover ((HVA+DOPAC)/DA)", "assay": "Dopamine turnover index in rat striatum", "format": "in vivo", "conditions": "p.o."}, "[2]": {"assay": "Rat dual-probe brain microdialysis study", "format": "in vivo", "conditions": "rat MD study, 1 mg/kg p.o."}, "[3]": {"system": "serotonin turnover (5-HIAA/5-HT)", "assay": "Serotonin turnover index in rat frontal cortex", "format": "in vivo", "conditions": "p.o."}, "dopamine biosynthesis": {"system": "dopamine biosynthesis", "assay": "NSD-1015-induced DOPA accumulation in striatum of reserpine-treated rats", "format": "in vivo, rat", "conditions": "p.o."}, "[4]": {"conditions": "human plasma; cited from earlier work"}}, "note": "Structures can show the parent of a compound that is named as a salt."}
{"compound": "CN(C)C(=O)N[C@H]1CC[C@H](CCN2CCN(c3cccc(Cl)c3Cl)CC2)CC1", "note": "[CAR, trans-N-[4-[2-[4-(2,3-dichlorophenyl)piperazin-1-yl]ethyl]cyclohexyl]-N’,N’-dimethylureahydrochloride]", "values": [{"measurement": "half-life", "setting": "in vivo", "result": "2 to 3", "unit": "h"}, {"measurement": "effect on dopamine turnover", "setting": "[1]", "result": "dose-dependently enhanced dopamine turnover"}, {"measurement": "free extracellular level as percent of total brain exposure", "setting": "[2]", "result": "1–2%"}, {"measurement": "extracellular levels in the brain", "setting": "[2]; listed as cariprazine, 1 mg/kg", "result": "2.6 to 9.9", "unit": "nM"}, {"measurement": "effect on serotonin turnover", "setting": "[3]", "result": "slightly reduced serotonin turnover"}, {"measurement": "effect on NSD-1015-induced accumulation of DOPA", "setting": "dopamine biosynthesis", "result": "inhibited the NSD-1015-induced accumulation of DOPA"}, {"measurement": "half-life in humans", "setting": "[4]", "result": "24 to 72", "unit": "h"}]}
